The values below come from PubChem BioAssay AID248 (DTP/NCI, 2004).

Where “and” joins values, the source holds several entries; their conditions need not be identical. Equal values may be shown once. Inconclusive results and toxic doses are left out.

In the assay the test system is L1210 leukemia ip in BDF1 mice, survival T/C. The assay is described as follows: NCI In Vivo Anticancer Drug Screen. Data for tumor model L1210 Leukemia (intraperitoneal) in B6D2F1 (BDF1) mice. The conditions noted are these: endpoint: mean survival time, higher = longer survival. The procedure, abridged: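 Tumor cells were implanted, animals were treated, and survival was followed. The result divides the treated measurement by the vehicle-control measurement.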

The mark [1] stands for this setting: dose: 100.0 mg/kg/injection, schedule: Q04DX003 (ip), vehicle: saline with Tween-80.
Setting [2] is: dose: 200.0 mg/kg/injection, schedule: Q04DX003 (ip), vehicle: saline with Tween-80.
Where [3] appears, read: dose: 400.0 mg/kg/injection, schedule: Q04DX003 (ip), vehicle: saline with Tween-80.
[4] abbreviates: dose: 25.0 mg/kg/injection, schedule: Q04DX002 (ip), vehicle: Klucel (hydroxypropylcellulose) (HPC).
Where [5] appears, read: dose: 50.0 mg/kg/injection, schedule: Q04DX002 (ip), vehicle: Klucel (hydroxypropylcellulose) (HPC).
Where [6] appears, read: dose: 100.0 mg/kg/injection, schedule: Q04DX002 (ip), vehicle: Klucel (hydroxypropylcellulose) (HPC).
Setting [7] is: dose: 100.0 mg/kg/injection, schedule: Q01DX001 (ip), vehicle: saline.
Where [8] appears, read: dose: 12.5 mg/kg/injection, schedule: Q04DX003 (ip), vehicle: saline.
Setting [9] is: dose: 25.0 mg/kg/injection, schedule: Q04DX003 (ip), vehicle: saline.
[10] abbreviates: dose: 50.0 mg/kg/injection, schedule: Q04DX003 (ip), vehicle: saline.
Setting [11] is: dose: 100.0 mg/kg/injection, schedule: Q01DX001 (ip), vehicle: carboxymethylcellulose (CMC).
The mark [12] stands for this setting: dose: 200.0 mg/kg/injection, schedule: Q01DX001 (ip), vehicle: carboxymethylcellulose (CMC).
The mark [13] stands for this setting: dose: 400.0 mg/kg/injection, schedule: Q01DX001 (ip), vehicle: carboxymethylcellulose (CMC).
[14] abbreviates: dose: 200.0 mg/kg/injection, schedule: Q01DX001 (ip), vehicle: saline.
The mark [15] stands for this setting: dose: 400.0 mg/kg/injection, schedule: Q01DX001 (ip), vehicle: saline.
The mark [16] stands for this setting: dose: 100.0 mg/kg/injection, schedule: Q04DX003 (ip), vehicle: saline.
The mark [17] stands for this setting: dose: 200.0 mg/kg/injection, schedule: Q04DX003 (ip), vehicle: saline.

In the case of `Brc1ccc2[nH]c3c(c2c1)CSc1ccccc1-3`, the T/C under setting [1] was 105 % of control, the T/C under setting [2] was 99 % of control and the T/C under setting [3] was 103 % of control.
Regarding `COc1cc2c(cc1OC)C(=O)C(c1ccc3c(c1)OCO3)CC2` (stereo not drawn), the T/C runs as follows: (dose: 100.0 mg/kg/injection, schedule: Q01DX009 (ip), vehicle: water) 102 % of control; (dose: 100.0 mg/kg/injection, schedule: Q04DX003 (ip), vehicle: water) 94 % of control; (dose: 200.0 mg/kg/injection, schedule: Q01DX009 (ip), vehicle: water) 91 % of control; (dose: 200.0 mg/kg/injection, schedule: Q04DX003 (ip), vehicle: water) 92 % of control; (dose: 400.0 mg/kg/injection, schedule: Q01DX009 (ip), vehicle: water) 101 % of control; (dose: 400.0 mg/kg/injection, schedule: Q04DX003 (ip), vehicle: water) 94 % of control.
As to `CCCCCCP(=O)(CCCC)CCCC`, the T/C is, setting by setting: under setting [4], 94 % of control; under setting [5], 109 % of control; under setting [6], 103 % of control and 109 % of control.
As to `C/C(=N/Nc1ccc([N+](=O)[O-])cc1[N+](=O)[O-])C(C)(C)C`, the T/C was 87 % of control under setting [4]; 93 % of control under setting [5]; 101 % of control and 90 % of control under setting [6]; 97 % of control (dose: 200.0 mg/kg/injection, schedule: Q04DX002 (ip), vehicle: Klucel (hydroxypropylcellulose) (HPC)); 93 % of control (dose: 400.0 mg/kg/injection, schedule: Q04DX002 (ip), vehicle: Klucel (hydroxypropylcellulose) (HPC)).
Take `CNCCCN1c2ccccc2C(C)(C)c2ccccc21`: the T/C under setting [7] was 97 % of control.
As for `CN(C)CC1CC2(CC(CN(C)C)C1=O)OCCO2` (stereo not drawn), the T/C is 98 % of control (dose: 9.38 mg/kg/injection, schedule: Q01DX001 (ip), vehicle: other); 97 % of control (dose: 18.75 mg/kg/injection, schedule: Q01DX001 (ip), vehicle: other); 104 % of control (dose: 37.5 mg/kg/injection, schedule: Q01DX001 (ip), vehicle: other).
As for `CCN1CCC(CCOC)(CN2c3ccccc3Sc3ccccc32)C1` (stereo not drawn), the T/C is 95 % of control under setting [8], 97 % of control under setting [9] and 104 % of control under setting [10].
For `CC(=O)OC1=C(OC(C)=O)N(S(=O)(=O)c2ccc(C)cc2)CCc2ccccc21`, the T/C is 97 % of control under setting [11], 94 % of control under setting [12] and 100 % of control under setting [13].
In the case of `O=C1OCC(O)=C1Cc1ccccc1`, the T/C reads like this: under setting [7], 101 % of control; under setting [14], 89 % of control; under setting [15], 94 % of control.
On to `CCCCCc1c(C)nc([N+](=O)[O-])nc1N`, for which the T/C runs as follows: (dose: 3.13 mg/kg/injection, schedule: Q01DX001 (ip), vehicle: saline with Tween-80) 97 % of control; (dose: 6.25 mg/kg/injection, schedule: Q01DX001 (ip), vehicle: saline with Tween-80) 101 % of control; (dose: 12.5 mg/kg/injection, schedule: Q01DX001 (ip), vehicle: saline with Tween-80) 96 % of control.
Consider `Cc1ccc[n+](Cc2ccccc2)c1`, for which the T/C runs as follows: under setting [8], 98 % of control; under setting [9], 101 % of control; under setting [10], 97 % of control.
With `CN(C)C(=O)c1ccc[n+](CC(=O)Nc2ccc(Cl)cc2)c1`, under setting [16], the T/C was 98 % of control.
On to `S=c1nc[nH]c2c1CP(c1ccccc1)CC2` (stereo not drawn), for which the T/C by setting is: under setting [1], 110 % of control; under setting [2], 100 % of control; under setting [3], 101 % of control.
With `O=C(Nc1ccc(Cl)cc1)C(c1ccccc1)c1ccccc1`, the T/C (dose: 100.0 mg/kg/injection, schedule: Q04DX002 (ip), vehicle: saline with Tween-80) is 100 % of control; the T/C (dose: 200.0 mg/kg/injection, schedule: Q04DX002 (ip), vehicle: saline with Tween-80) was 110 % of control; the T/C (dose: 400.0 mg/kg/injection, schedule: Q04DX002 (ip), vehicle: saline with Tween-80) is 100 % of control.
As to `CC(C)(C)c1ccc(SSc2ccc(C(C)(C)C)cc2)cc1`, the T/C (dose: 50.0 mg/kg/injection, schedule: Q01DX009 (ip), vehicle: Klucel (hydroxypropylcellulose) (HPC)) was 94 % of control; the T/C (dose: 100.0 mg/kg/injection, schedule: Q01DX009 (ip), vehicle: Klucel (hydroxypropylcellulose) (HPC)) is 94 % of control; the T/C (dose: 100.0 mg/kg/injection, schedule: Q04DX003 (ip), vehicle: Klucel (hydroxypropylcellulose) (HPC)) is 94 % of control; the T/C (dose: 200.0 mg/kg/injection, schedule: Q01DX009 (ip), vehicle: Klucel (hydroxypropylcellulose) (HPC)) is 98 % of control; the T/C (dose: 200.0 mg/kg/injection, schedule: Q04DX003 (ip), vehicle: Klucel (hydroxypropylcellulose) (HPC)) is 91 % of control; the T/C (dose: 400.0 mg/kg/injection, schedule: Q01DX009 (ip), vehicle: Klucel (hydroxypropylcellulose) (HPC)) was 96 % of control. The T/C (dose: 400.0 mg/kg/injection, schedule: Q04DX003 (ip), vehicle: Klucel (hydroxypropylcellulose) (HPC)) was 92 % of control.
Consider `CNC(=O)/C(=C\c1ccccc1)NC(C)=O`, for which the T/C runs as follows: (dose: 100.0 mg/kg/injection, schedule: Q01DX001 (ip), vehicle: saline with Tween-80) 91 % of control; (dose: 200.0 mg/kg/injection, schedule: Q01DX001 (ip), vehicle: saline with Tween-80) 107 % of control; (dose: 400.0 mg/kg/injection, schedule: Q01DX001 (ip), vehicle: saline with Tween-80) 100 % of control.
For `S=P(N1CCCCCC1)(N1CC1)N1CC1`, the T/C is 110 % of control and 116 % of control (dose: 25.0 mg/kg/injection, schedule: Q01DX Z (ip), vehicle: saline); 108 % of control (dose: 50.0 mg/kg/injection, schedule: Q01DX001 (ip), vehicle: saline); 104 % of control (dose: 50.0 mg/kg/injection, schedule: Q01DX006 (iv), vehicle: saline); 96 % of control (dose: 50.0 mg/kg/injection, schedule: Q01DX Z (ip), vehicle: saline); 122 % of control (dose: 50.0 mg/kg/injection, schedule: Q01DX Z (oral), vehicle: saline); 113 % of control under setting [7]. In addition, the T/C by setting is: (dose: 100.0 mg/kg/injection, schedule: Q01DX006 (iv), vehicle: saline) 105 % of control; (dose: 100.0 mg/kg/injection, schedule: Q01DX Z (ip), vehicle: saline) 170 % of control; (dose: 100.0 mg/kg/injection, schedule: Q01DX Z (oral), vehicle: saline) 158 % of control; under setting [14], 105 % of control; (dose: 200.0 mg/kg/injection, schedule: Q01DX006 (iv), vehicle: saline) 104 % of control; (dose: 250.0 mg/kg/injection, schedule: Q01DX001 (ip), vehicle: saline) 112 % of control. Under “dose: 500.0 mg/kg/injection, schedule: Q01DX001 (ip), vehicle: saline”, the T/C was 104 % of control.
Take `O=C(O)c1ccc(Br)cc1.[Ni]`: the T/C by setting is: (dose: 25.0 mg/kg/injection, schedule: Q04DX002 (ip), vehicle: gum acacia) 100 % of control; (dose: 50.0 mg/kg/injection, schedule: Q04DX002 (ip), vehicle: gum acacia) 101 % of control.
Consider `Cc1ccc(-c2ccns2)cc1`, for which the T/C by setting is: under setting [10], 105 % of control; under setting [7], 100 % of control; under setting [16], 108 % of control; under setting [14], 104 % of control; under setting [17], 103 % of control; under setting [15], 104 % of control.
Regarding `Cn1cc(Cc2ccccc2)c(=O)n(C)c1=O`, the T/C is, setting by setting: under setting [1], 100 % of control; under setting [2], 100 % of control; under setting [3], 106 % of control.
On to `CCCCC(SC(CC)(C(C)=O)c1ccccc1)C(N)=O` (stereo not drawn), for which the T/C under setting [11] is 102 % of control, the T/C under setting [12] was 113 % of control and the T/C under setting [13] was 96 % of control.
Turning to `C=CCN=C(N)C(N)=NCC=C`, the T/C is 96 % of control under setting [16]; 101 % of control under setting [17]; 103 % of control (dose: 400.0 mg/kg/injection, schedule: Q04DX003 (ip), vehicle: saline).
